These results are taken from the kinase profiling compilation of Christmann-Franck et al. (2016).

The structures appear in SMILES notation.

For orientation: residual activity means the signal under treatment as a percentage of the control signal.

Sequence of RET (human) (P07949 whole entry, looked up): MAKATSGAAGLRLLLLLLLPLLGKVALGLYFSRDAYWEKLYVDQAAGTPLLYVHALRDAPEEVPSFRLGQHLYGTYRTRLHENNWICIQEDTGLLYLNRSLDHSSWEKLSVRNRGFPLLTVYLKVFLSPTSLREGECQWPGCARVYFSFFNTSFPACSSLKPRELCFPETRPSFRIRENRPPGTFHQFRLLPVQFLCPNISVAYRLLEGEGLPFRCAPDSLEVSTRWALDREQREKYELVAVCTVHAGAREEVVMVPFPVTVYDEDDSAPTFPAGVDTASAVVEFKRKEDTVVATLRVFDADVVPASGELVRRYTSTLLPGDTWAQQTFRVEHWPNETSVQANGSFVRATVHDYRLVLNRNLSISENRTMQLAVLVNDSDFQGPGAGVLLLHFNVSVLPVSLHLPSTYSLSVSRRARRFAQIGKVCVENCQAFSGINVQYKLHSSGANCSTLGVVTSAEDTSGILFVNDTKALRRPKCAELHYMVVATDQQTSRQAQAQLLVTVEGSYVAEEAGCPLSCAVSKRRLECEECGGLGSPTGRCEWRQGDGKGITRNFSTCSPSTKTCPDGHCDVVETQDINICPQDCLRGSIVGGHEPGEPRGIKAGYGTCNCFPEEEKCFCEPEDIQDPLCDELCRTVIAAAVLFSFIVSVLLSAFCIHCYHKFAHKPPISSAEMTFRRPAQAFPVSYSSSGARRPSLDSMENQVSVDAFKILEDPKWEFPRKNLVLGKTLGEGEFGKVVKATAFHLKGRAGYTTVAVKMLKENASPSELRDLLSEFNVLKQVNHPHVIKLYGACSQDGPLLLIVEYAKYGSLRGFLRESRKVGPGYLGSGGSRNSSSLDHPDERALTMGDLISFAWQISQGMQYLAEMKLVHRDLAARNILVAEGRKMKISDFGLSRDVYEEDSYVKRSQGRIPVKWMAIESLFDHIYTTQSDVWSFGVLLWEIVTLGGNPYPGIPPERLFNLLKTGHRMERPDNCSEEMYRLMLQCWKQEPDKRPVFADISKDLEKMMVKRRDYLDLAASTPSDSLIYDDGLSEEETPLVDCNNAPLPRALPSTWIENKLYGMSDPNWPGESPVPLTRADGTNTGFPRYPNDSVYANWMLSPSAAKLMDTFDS
Sequence of CLK1 (human) (P49759 whole entry, looked up): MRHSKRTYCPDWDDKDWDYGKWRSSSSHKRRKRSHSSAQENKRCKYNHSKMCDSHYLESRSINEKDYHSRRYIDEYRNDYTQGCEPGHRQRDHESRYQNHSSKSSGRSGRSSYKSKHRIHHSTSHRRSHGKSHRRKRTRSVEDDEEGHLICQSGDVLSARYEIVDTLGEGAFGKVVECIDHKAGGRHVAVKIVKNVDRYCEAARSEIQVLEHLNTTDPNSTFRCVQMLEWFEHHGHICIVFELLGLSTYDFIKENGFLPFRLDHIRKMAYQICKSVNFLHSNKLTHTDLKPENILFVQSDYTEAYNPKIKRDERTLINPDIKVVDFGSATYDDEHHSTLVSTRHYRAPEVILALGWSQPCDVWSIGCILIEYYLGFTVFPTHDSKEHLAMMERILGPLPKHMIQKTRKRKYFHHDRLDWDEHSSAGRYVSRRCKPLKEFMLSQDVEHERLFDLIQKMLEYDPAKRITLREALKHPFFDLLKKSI
Sequence of AKT3 (human) (Q9Y243 whole entry, looked up): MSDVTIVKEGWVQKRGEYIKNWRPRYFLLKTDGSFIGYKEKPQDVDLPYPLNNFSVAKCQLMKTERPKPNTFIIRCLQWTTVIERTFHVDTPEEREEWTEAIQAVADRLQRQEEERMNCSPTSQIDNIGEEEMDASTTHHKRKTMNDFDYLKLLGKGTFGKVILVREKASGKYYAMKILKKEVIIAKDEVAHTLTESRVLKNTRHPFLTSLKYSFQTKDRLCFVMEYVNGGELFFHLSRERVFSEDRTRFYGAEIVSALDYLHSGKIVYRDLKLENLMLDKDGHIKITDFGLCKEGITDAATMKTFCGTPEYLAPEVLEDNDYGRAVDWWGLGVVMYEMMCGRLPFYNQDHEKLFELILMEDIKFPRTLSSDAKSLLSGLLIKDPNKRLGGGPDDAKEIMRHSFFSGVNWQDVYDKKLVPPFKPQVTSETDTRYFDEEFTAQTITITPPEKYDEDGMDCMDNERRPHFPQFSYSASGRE
Sequence of CDK4 CCND1 (human) (P11802 whole entry, looked up): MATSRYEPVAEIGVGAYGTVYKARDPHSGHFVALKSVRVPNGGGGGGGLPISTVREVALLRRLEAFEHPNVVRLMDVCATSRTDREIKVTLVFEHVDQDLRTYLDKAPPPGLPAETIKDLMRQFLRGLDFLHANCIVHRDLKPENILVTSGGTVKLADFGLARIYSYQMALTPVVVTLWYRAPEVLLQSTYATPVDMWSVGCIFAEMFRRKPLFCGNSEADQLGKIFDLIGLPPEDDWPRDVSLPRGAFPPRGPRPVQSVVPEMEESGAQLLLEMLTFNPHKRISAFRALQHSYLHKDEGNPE
Sequence of CDK4 CCND1 (human) (P24385 whole entry, looked up): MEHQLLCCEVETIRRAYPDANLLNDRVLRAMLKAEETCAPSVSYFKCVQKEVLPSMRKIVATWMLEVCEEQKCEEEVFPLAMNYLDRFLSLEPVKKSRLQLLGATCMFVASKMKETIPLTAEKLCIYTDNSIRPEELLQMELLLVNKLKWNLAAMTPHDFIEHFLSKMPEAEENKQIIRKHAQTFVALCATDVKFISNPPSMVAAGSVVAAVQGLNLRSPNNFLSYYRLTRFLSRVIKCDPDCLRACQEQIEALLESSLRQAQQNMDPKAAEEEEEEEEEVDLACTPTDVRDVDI

The target in one assay is EPHB3 (human) (UniProt P54753). Kind of assay: radiometric filter-binding kinase assay, Kinase HotSpot. Particulars: compound 0.5 µM; ATP 10 µM.
Sequence of EPHB3 (human) (P54753 whole entry, looked up): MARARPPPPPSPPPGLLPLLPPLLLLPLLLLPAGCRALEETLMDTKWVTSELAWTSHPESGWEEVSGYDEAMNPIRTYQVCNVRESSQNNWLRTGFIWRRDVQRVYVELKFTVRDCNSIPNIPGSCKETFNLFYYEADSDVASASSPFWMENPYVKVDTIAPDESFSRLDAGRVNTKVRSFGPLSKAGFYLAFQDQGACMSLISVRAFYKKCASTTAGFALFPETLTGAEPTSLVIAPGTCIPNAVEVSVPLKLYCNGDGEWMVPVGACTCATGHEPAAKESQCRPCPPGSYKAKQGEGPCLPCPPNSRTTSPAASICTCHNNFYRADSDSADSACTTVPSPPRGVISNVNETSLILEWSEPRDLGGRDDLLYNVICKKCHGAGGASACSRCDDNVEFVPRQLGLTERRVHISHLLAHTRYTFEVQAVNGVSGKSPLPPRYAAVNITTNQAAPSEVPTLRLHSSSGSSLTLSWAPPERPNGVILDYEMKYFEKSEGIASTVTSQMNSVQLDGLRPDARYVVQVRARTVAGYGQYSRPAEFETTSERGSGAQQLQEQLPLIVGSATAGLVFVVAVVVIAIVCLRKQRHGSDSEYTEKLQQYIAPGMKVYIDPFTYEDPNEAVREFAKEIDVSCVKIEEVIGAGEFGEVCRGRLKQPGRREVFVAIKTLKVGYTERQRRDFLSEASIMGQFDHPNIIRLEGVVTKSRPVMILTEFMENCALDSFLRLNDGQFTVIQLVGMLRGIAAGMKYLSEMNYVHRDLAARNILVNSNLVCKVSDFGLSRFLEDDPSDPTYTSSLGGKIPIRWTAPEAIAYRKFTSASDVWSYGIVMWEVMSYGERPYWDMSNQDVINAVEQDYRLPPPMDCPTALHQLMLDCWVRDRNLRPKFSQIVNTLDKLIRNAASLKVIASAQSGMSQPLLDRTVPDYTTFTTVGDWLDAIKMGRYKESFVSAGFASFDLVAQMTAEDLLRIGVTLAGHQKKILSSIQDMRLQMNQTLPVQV
In the case of `Cc1ccc(NC2=CC(=O)c3sc(C)nc3C2=O)cc1`, the residual activity stood at 89.2%.
In the case of `CCN(CC)C(=O)c1ccc(Nc2nc(OCC3CCCCC3)c3nc[nH]c3n2)cc1`, the residual activity turned out to be 99.5%.
The same measure, in the same setting: the figure for `O=C(Nc1cccc(Nc2nccc(Nc3cccc(C(F)(F)F)c3)n2)c1)C1CC1` is 100%.

A further assay addresses PNCK (human) (UniProt Q6P2M8). Described as above. Particulars: compound 0.5 µM; ATP 10 µM.
`Cc1ccc(NC2=CC(=O)c3sc(C)nc3C2=O)cc1`: the residual activity worked out at 95.3%.
On the same count and under the same terms, in the case of `CCN(CC)C(=O)c1ccc(Nc2nc(OCC3CCCCC3)c3nc[nH]c3n2)cc1` it was 117%; in that of `O=C(Nc1cccc(Nc2nccc(Nc3cccc(C(F)(F)F)c3)n2)c1)C1CC1`, 106%.

Another assay concerns the target CAMK2B (human) (UniProt Q13554). The description is as above. The following applies: compound 0.5 µM; ATP 10 µM.
`Cc1ccc(NC2=CC(=O)c3sc(C)nc3C2=O)cc1`: the residual activity was 109%.
The same measure, in the same setting: in the case of `CCN(CC)C(=O)c1ccc(Nc2nc(OCC3CCCCC3)c3nc[nH]c3n2)cc1` it was 97.6%.
Still for that read-out and setting: in the case of `O=C(Nc1cccc(Nc2nccc(Nc3cccc(C(F)(F)F)c3)n2)c1)C1CC1` it was 102%.

A further assay has as its target TEC (human) (UniProt P42680). Described as above. Particulars: compound 0.5 µM; ATP 10 µM.
For `Cc1ccc(NC2=CC(=O)c3sc(C)nc3C2=O)cc1`, the residual activity was 117%.
Still for that read-out and setting: the figure for `CCN(CC)C(=O)c1ccc(Nc2nc(OCC3CCCCC3)c3nc[nH]c3n2)cc1` is 63%; for `O=C(Nc1cccc(Nc2nccc(Nc3cccc(C(F)(F)F)c3)n2)c1)C1CC1` it is 158%.

In another assay the target is TSSK2 (human) (UniProt Q96PF2). The assay is described as above. Particulars: compound 0.5 µM; ATP 10 µM.
Turning to `Cc1ccc(NC2=CC(=O)c3sc(C)nc3C2=O)cc1`, the residual activity came out at 98.3%.
Still for that read-out and setting: the figure for `CCN(CC)C(=O)c1ccc(Nc2nc(OCC3CCCCC3)c3nc[nH]c3n2)cc1` is 87.4%; for `O=C(Nc1cccc(Nc2nccc(Nc3cccc(C(F)(F)F)c3)n2)c1)C1CC1` it is 97.1%.

The target in a further assay is CAMK2G (human) (UniProt Q13555). The description is as above. The following applies: compound 0.5 µM; ATP 10 µM.
Sequence of CAMK2G (human) (Q13555 whole entry, looked up): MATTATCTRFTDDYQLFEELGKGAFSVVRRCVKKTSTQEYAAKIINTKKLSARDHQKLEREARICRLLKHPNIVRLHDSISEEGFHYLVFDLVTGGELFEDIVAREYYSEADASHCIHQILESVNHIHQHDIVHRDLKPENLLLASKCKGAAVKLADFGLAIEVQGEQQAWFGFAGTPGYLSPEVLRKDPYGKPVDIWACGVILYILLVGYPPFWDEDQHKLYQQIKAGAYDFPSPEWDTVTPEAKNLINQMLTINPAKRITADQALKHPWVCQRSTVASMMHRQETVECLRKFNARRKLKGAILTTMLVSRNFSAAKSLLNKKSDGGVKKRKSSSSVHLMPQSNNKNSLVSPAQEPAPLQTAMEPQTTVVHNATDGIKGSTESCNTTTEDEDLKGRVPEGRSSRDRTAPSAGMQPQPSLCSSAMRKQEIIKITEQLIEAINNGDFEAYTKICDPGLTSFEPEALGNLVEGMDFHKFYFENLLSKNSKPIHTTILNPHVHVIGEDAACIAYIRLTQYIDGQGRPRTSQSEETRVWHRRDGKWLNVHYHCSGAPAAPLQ
On to `Cc1ccc(NC2=CC(=O)c3sc(C)nc3C2=O)cc1`, for which the residual activity was 90.4%.
Consider `CCN(CC)C(=O)c1ccc(Nc2nc(OCC3CCCCC3)c3nc[nH]c3n2)cc1`, for which the residual activity was found to be 95.2%.
Same read-out and setting: in the case of `O=C(Nc1cccc(Nc2nccc(Nc3cccc(C(F)(F)F)c3)n2)c1)C1CC1` it was 108%.

The target in the next assay is PBK (human) (UniProt Q96KB5). The assay is described as above. The following applies: compound 0.5 µM; ATP 10 µM.
Sequence of PBK (human) (Q96KB5 whole entry, looked up): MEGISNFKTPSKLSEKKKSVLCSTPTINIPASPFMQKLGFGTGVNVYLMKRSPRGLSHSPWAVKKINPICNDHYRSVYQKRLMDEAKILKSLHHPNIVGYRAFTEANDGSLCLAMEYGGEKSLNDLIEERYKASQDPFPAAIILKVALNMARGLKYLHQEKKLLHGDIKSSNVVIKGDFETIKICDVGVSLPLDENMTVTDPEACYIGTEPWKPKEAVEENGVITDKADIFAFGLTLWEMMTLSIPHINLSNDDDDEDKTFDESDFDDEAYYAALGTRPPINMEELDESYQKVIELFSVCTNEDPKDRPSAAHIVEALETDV
As to `Cc1ccc(NC2=CC(=O)c3sc(C)nc3C2=O)cc1`, the residual activity is 85.8%.
Same read-out and setting: the figure for `CCN(CC)C(=O)c1ccc(Nc2nc(OCC3CCCCC3)c3nc[nH]c3n2)cc1` is 116%.
The same measure, in the same setting: the figure for `O=C(Nc1cccc(Nc2nccc(Nc3cccc(C(F)(F)F)c3)n2)c1)C1CC1` is 101%.

The next assay deals with DAPK3 (human) (UniProt O43293). Described as above. Particulars: compound 0.5 µM; ATP 10 µM.
Turning to `Cc1ccc(NC2=CC(=O)c3sc(C)nc3C2=O)cc1`, the residual activity is 104%.
`CCN(CC)C(=O)c1ccc(Nc2nc(OCC3CCCCC3)c3nc[nH]c3n2)cc1`: the residual activity turned out to be 98.4%.
Regarding `O=C(Nc1cccc(Nc2nccc(Nc3cccc(C(F)(F)F)c3)n2)c1)C1CC1`, the residual activity was 94.3%.

The next assay concerns the target RET (human) (UniProt P07949). The assay is described as above. The following applies: compound 0.5 µM; ATP 10 µM.
Turning to `Cc1ccc(NC2=CC(=O)c3sc(C)nc3C2=O)cc1`, the residual activity is 97.6%.
Consider `CCN(CC)C(=O)c1ccc(Nc2nc(OCC3CCCCC3)c3nc[nH]c3n2)cc1`, for which the residual activity stood at 7.65%.
Same read-out and setting: in the case of `O=C(Nc1cccc(Nc2nccc(Nc3cccc(C(F)(F)F)c3)n2)c1)C1CC1` it was 88.6%.

For another assay, the target named is MAP4K2 (human) (UniProt Q12851). The assay is described as above. The following applies: compound 0.5 µM; ATP 10 µM.
Regarding `Cc1ccc(NC2=CC(=O)c3sc(C)nc3C2=O)cc1`, the residual activity was 104%.
`CCN(CC)C(=O)c1ccc(Nc2nc(OCC3CCCCC3)c3nc[nH]c3n2)cc1`: the residual activity turned out to be 59.7%.
With `O=C(Nc1cccc(Nc2nccc(Nc3cccc(C(F)(F)F)c3)n2)c1)C1CC1`, the residual activity is 112%.

The next assay addresses CDK2 CCNE1 (human) (UniProt P24941+P24864). The description is as above. The following applies: compound 0.5 µM; ATP 10 µM.
Consider `Cc1ccc(NC2=CC(=O)c3sc(C)nc3C2=O)cc1`, for which the residual activity amounted to 72.9%.
As for `CCN(CC)C(=O)c1ccc(Nc2nc(OCC3CCCCC3)c3nc[nH]c3n2)cc1`, the residual activity came out at 76.5%.
Same read-out and setting: the figure for `O=C(Nc1cccc(Nc2nccc(Nc3cccc(C(F)(F)F)c3)n2)c1)C1CC1` is 85.1%.

A further assay concerns the target CLK1 (human) (UniProt P49759). The description is as above. The following applies: compound 0.5 µM; ATP 10 µM.
`Cc1ccc(NC2=CC(=O)c3sc(C)nc3C2=O)cc1`: the residual activity was determined as 100%.
On to `CCN(CC)C(=O)c1ccc(Nc2nc(OCC3CCCCC3)c3nc[nH]c3n2)cc1`, for which the residual activity turned out to be 74.1%.
The same measure, in the same setting: the figure for `O=C(Nc1cccc(Nc2nccc(Nc3cccc(C(F)(F)F)c3)n2)c1)C1CC1` is 102%.

Another assay has as its target TGFBR2 (human) (UniProt P37173). The assay is described as above. The following applies: compound 0.5 µM; ATP 10 µM.
In the case of `Cc1ccc(NC2=CC(=O)c3sc(C)nc3C2=O)cc1`, the residual activity is 77.6%.
As to `CCN(CC)C(=O)c1ccc(Nc2nc(OCC3CCCCC3)c3nc[nH]c3n2)cc1`, the residual activity came to 75.4%.
On the same count and under the same terms, the figure for `O=C(Nc1cccc(Nc2nccc(Nc3cccc(C(F)(F)F)c3)n2)c1)C1CC1` is 91.6%.

The target in a further assay is FRK (human) (UniProt P42685). Described as above. Particulars: compound 0.5 µM; ATP 10 µM.
On to `Cc1ccc(NC2=CC(=O)c3sc(C)nc3C2=O)cc1`, for which the residual activity amounted to 87.9%.
As to `CCN(CC)C(=O)c1ccc(Nc2nc(OCC3CCCCC3)c3nc[nH]c3n2)cc1`, the residual activity was found to be 116%.
In the case of `O=C(Nc1cccc(Nc2nccc(Nc3cccc(C(F)(F)F)c3)n2)c1)C1CC1`, the residual activity turned out to be 92.2%.

For the next assay, the target named is DAPK2 (human) (UniProt Q9UIK4). The description is as above. The following applies: compound 0.5 µM; ATP 10 µM.
Sequence of DAPK2 (human) (Q9UIK4 whole entry, looked up): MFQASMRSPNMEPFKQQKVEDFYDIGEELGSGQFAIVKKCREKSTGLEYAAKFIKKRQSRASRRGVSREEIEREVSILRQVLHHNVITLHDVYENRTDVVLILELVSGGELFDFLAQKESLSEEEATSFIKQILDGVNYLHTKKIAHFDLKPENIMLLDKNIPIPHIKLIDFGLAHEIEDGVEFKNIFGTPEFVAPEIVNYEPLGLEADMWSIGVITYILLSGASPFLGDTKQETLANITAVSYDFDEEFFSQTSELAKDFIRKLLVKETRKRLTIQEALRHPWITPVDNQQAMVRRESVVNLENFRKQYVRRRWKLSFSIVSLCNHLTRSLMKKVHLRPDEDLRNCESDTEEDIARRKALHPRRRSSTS
Consider `Cc1ccc(NC2=CC(=O)c3sc(C)nc3C2=O)cc1`, for which the residual activity came to 91.9%.
On the same count and under the same terms, in the case of `CCN(CC)C(=O)c1ccc(Nc2nc(OCC3CCCCC3)c3nc[nH]c3n2)cc1` it was 91.7%.
In the case of `O=C(Nc1cccc(Nc2nccc(Nc3cccc(C(F)(F)F)c3)n2)c1)C1CC1`, the residual activity was found to be 120%.

The next assay has as its target CDK4 CCND1 (human) (UniProt P24385+P11802). Described as above. Particulars: compound 0.5 µM; ATP 10 µM.
Take `Cc1ccc(NC2=CC(=O)c3sc(C)nc3C2=O)cc1`: the residual activity amounted to 92%.
The same measure, in the same setting: the figure for `CCN(CC)C(=O)c1ccc(Nc2nc(OCC3CCCCC3)c3nc[nH]c3n2)cc1` is 82%; for `O=C(Nc1cccc(Nc2nccc(Nc3cccc(C(F)(F)F)c3)n2)c1)C1CC1` it is 101%.

A further assay has as its target AKT3 (human) (UniProt Q9Y243). The description is as above. The following applies: compound 0.5 µM; ATP 10 µM.
For the compound `Cc1ccc(NC2=CC(=O)c3sc(C)nc3C2=O)cc1`, the residual activity was found to be 92.8%.
As to `CCN(CC)C(=O)c1ccc(Nc2nc(OCC3CCCCC3)c3nc[nH]c3n2)cc1`, the residual activity came out at 101%.
With `O=C(Nc1cccc(Nc2nccc(Nc3cccc(C(F)(F)F)c3)n2)c1)C1CC1`, the residual activity came out at 108%.

Another assay addresses PRKD3 (human) (UniProt O94806). The assay is described as above. Particulars: compound 0.5 µM; ATP 10 µM.
As to `Cc1ccc(NC2=CC(=O)c3sc(C)nc3C2=O)cc1`, the residual activity was 93.5%.
Turning to `CCN(CC)C(=O)c1ccc(Nc2nc(OCC3CCCCC3)c3nc[nH]c3n2)cc1`, the residual activity amounted to 66.5%.
Same read-out and setting: in the case of `O=C(Nc1cccc(Nc2nccc(Nc3cccc(C(F)(F)F)c3)n2)c1)C1CC1` it was 91.9%.

Another assay concerns the target TBK1 (human) (UniProt Q9UHD2). Described as above. Particulars: compound 0.5 µM; ATP 10 µM.
For the compound `Cc1ccc(NC2=CC(=O)c3sc(C)nc3C2=O)cc1`, the residual activity was 94%.
The same measure, in the same setting: in the case of `CCN(CC)C(=O)c1ccc(Nc2nc(OCC3CCCCC3)c3nc[nH]c3n2)cc1` it was 25.4%.
As for `O=C(Nc1cccc(Nc2nccc(Nc3cccc(C(F)(F)F)c3)n2)c1)C1CC1`, the residual activity stood at 91%.

The target in the next assay is VRK1 (human) (UniProt Q99986). The description is as above. Particulars: compound 0.5 µM; ATP 10 µM.
Regarding `Cc1ccc(NC2=CC(=O)c3sc(C)nc3C2=O)cc1`, the residual activity came out at 108%.
The same measure, in the same setting: the figure for `CCN(CC)C(=O)c1ccc(Nc2nc(OCC3CCCCC3)c3nc[nH]c3n2)cc1` is 93.1%; for `O=C(Nc1cccc(Nc2nccc(Nc3cccc(C(F)(F)F)c3)n2)c1)C1CC1` it is 88.2%.

A further assay has as its target PRKACA (human) (UniProt P17612). Described as above. Particulars: compound 0.5 µM; ATP 10 µM.
With `Cc1ccc(NC2=CC(=O)c3sc(C)nc3C2=O)cc1`, the residual activity was 95.9%.
